Results taken from ChEMBL document CHEMBL1146070, “Investigating the role of stereochemistry in the activity of anticancer acylfulvenes: synthesis, reductase-mediated bioactivation, and cellular toxicity” (J Med Chem, 2006).

Test system: HEK293
Assay: Cytotoxicity against HEK293 cells by MTT assay
Format: functional, cell-based
Settings: Homo sapiens

Row | Structure (SMILES) | IC50
1 | CC1=CC2=C(C)C3(CC3)[C@@](C)(O)C(=O)C2=C1 [ACYLFULVENE] | 1400 nM
2 | CC1=C(CO)C2=C(C)C3(CC3)[C@@](C)(O)C(=O)C2=C1 [IROFULVEN] | 1200 nM
